Laboratory results as given in patent US10736880B2, “Therapeutics for preterm labor management” (THE BOARD OF REGENTS OF THE UNIVERSITY OF TEXAS SYSTEM, priority 2015, dated 2020).
“And” between values parts separate entries of the source, which are not always exact repeats. Identical values can stand only once. Where a SMILES comes first, the peptide text is derived from it. Bridges are numbered along the chain shown (N, C = ends). [ ]: non-standard residue; d: D form. Orn = NCCC[C@H](N)C(=O)O; Mpa = O=C(O)CCS

Key:
[1] = ORA levels in maternal organs by LC-MS/MS; type: in vivo, pregnant mice; details: after LIP-IND-ORA
Text: To enable faster clinical translation of the proposed approach, a clinically used^33 oxytocin receptor antagonist (ORA, or atosiban) was used as the targeting element. […] Thus, the goal of using ORA as a safe targeting moiety for pregnant women was successfully in delivering indomethacin to the uterus directly. The principles of nanomedicine have been applied to optimize tocolytics for the treatment of preterm labor, and the novel drug delivery system can provide a path for a new paradigm-shifting direction to advance the field of obstetrics.

[2] = test system: strips from uterine biopsies obtained at cesarean section; assay: Human myometrial contractility study (organ bath); details: highest concentration of 10^−6
Text: (§1) Uterine contractility ex vivo. An established ex vivo pregnant mouse or human models of uterine contractility was used to measure the ability of LIP-IND-ORA to inhibit uterine contractions. For mice, on GD19, timed-pregnant animals (N=6) underwent CO2 inhalation euthanasia, the maternal uteri were excised and placed into Krebs physiological solution. In the case of human tissue, strips from uterine biopsies obtained at cesarean section from non-laboring, term, healthy women were used. Uterine ring segments, 4 mm in width, were cut, and the fetuses and placentas were gently removed. […]
(§2) Changes in isometric tension were recorded with isometric force transducers (Harvard Apparatus, South Natik, Mass.) connected and stored to an online computer with data acquisition software (WINDAQ-200; DATAQ). The data was acquired and analyzed using Windaq data acquisition system (Dataq Instruments Inc, Akron, Ohio). Spontaneous contractile activity for each uterine ring was analyzed as an integral activity over 40 min before (basal activity) and after application of each study drug. […] OXY induced contractile response was expressed as an integral activity over 20 min of each OXY dose and the baseline uterine contractility54,55,56. […] Data was expressed as mean±SEM.

[3] = test system: Prostaglandin E2 (PGE2); assay: PGE2 levels in uterine tissue after administration (Example 1); type: in vivo, pregnant mouse; details: four hours following administration
[4] = test system: prostaglandin E2 (PGE2); assay: PGE2 in uterine tissue incubated ex vivo, ELISA; set-up: species or system mouse; details: 40 min incubation, mean±SEM
Protocol: Another set of pregnant CD1 mice at GD 19 (n=5) was used to evaluate uterus PGE2 levels. […] PGE2 levels in each sample were then determined based on the instructions in the ELISA kit (ADI-901-001, Enzo Life Science, New York, USA). The concentration of PGE2 were expressed as pg/mL and reported as the mean±SEM.

[5] = Indomethacin levels in uterus, placenta and fetus after IND or LIP-IND (Example 1); type: in vivo, pregnant mouse; details: four hours following administration, mean ± sem; for concentration at 4 h: female, mouse
[6] = test system: uterus isolated from pregnant mice; assay: Uterine contractility ex vivo, pregnant mouse; details: absence of oxytocin, 40 min incubation, IND 10-5 mol/L, n=6, mean±SEM
Text: as §1, §2

[7] = test system: preterm birth; details: prior experiments, 90% in control; cited from earlier work
[8] = test system: LPS-induced preterm birth; assay: LPS-induced preterm birth in vivo; set-up: species or system pregnant CD1 mice; details: IND 1 mg/kg daily tail vein
Protocol: Preterm birth in vivo. The established in vivo preterm pregnant mouse model was used to test the ability of LIP-IND-ORA to prevent preterm birth. LPS is a commonly used model to induce labor in murine models. On GD 16, timed-pregnant CD1 mice were administered lipopolysaccharide (LPS, Sigma, USA) (25 μg/kg) via intraperitoneal injection. […] Since the LIP-IND-ORA solution color was visibly pink and due to limited resources to create a placebo, the randomization was not blinded. Each day after the LPS administration, the preterm birth rate was determined as the number of pregnant mice spontaneously delivering prior to GD18. Animals were housed in single cages and were monitored by either direct observation or by video camera for the duration of the treatment period to confirm timing of delivery. The rate of preterm birth was expressed as percent and length of pregnancy after LPS administration was expressed in hours. Results were reported as median±sem.

[9] = IND concentrations in maternal uterus and fetus by LC-MS/MS; type: in vivo, pregnant CD1 mice; details: female, CD1, mouse, intravenous, 1 mg/kg
Protocol: Biodistribution study in vivo. […] The in vivo doses were maintained across the study. After 4 h, pregnant mice were sacrificed by CO2 inhalation, followed by laparotomy to retrieve maternal liver, uteri, placentas and fetuses. The onset of action of LIP-IND-ORA is unknown when administered intravenously. […] Based on these prior studies, 4 h was chosen as the period of exposure.
Uterine and fetal tissues were homogenized in 1 mL of ice-cold methanol/water (7:3 v/v). Phenacetin (final concentration 20 ng/mL) was added to each sample before centrifugation at 15,000 rpm for 10 min. Supernatant was dried under nitrogen and reconstituted in 0.1% formic acid aqueous solution followed by protein precipitation with acetonitrile (1:2). Samples were centrifuged again, supernatant was transferred to vial and 10 μL was injected to Shimadzu triple quad 8040 MS connected to LC system. […] Method parameters were: LOD=3.9 ng/mL (accuracy 76%, S/N>3); LOQ=15.6 ng/mL (accuracy 85%; CV<10%; S/N>10) with correlation coefficient for linear regression R2=0.992.

| Compound | ORA levels in the maternal organs [1] | percent uterine contractions [2] | PGE2 levels in the uterus [3] | PGE2 levels in the uterus exposed ex vivo [4] | concentration at 4 h ([5]; fetus) | concentration at 4 h ([5]; placenta) | concentration at 4 h ([5]; uterus) | Indomethacin level normalized per weight, fetus [5] | percent inhibition of uterine contractions [6] | rate of preterm birth [7] | length of pregnancy after LPS administration [8] | rate of LPS-induced preterm birth ([8]; delivery prior to GD18) | concentration at 4 h ([9]; fetus) | concentration at 4 h ([9]; uterus) |
| --- | --- | --- | --- | --- | --- | --- | --- | --- | --- | --- | --- | --- | --- | --- |
| CCOc1ccc(C[C@H]2NC(=O)CCSSC[C@@H](C(=O)N3CCC[C@H]3C(=O)N[C@@H](CCCN)C(=O)NCC(N)=O)NC(=O)[C@H](CC(N)=O)NC(=O)[C@H]([C@@H](C)O)NC(=O)[C@H]([C@@H](C)CC)NC2=O)cc1 [ORA, atosiban] ([Mpa][dY](Et)ITNCP[Orn]G-NH2; disulfide 1-6) | not detectable |  |  |  |  |  |  |  |  |  |  |  |  |  |
| COc1ccc2c(c1)c(CC(=O)O)c(C)n2C(=O)c1ccc(Cl)cc1 [IND, indomethacin] |  | 67.2±8.4% | 493.3 ± 89.0 pg/mL | 2,587.4±676.5 pg/mL | 81.3 ± 24.7 ng/g | 650 ± 78.4 ng/g | 237 ± 21.6 ng/g | 81.3 ± 24.7 ng/g | 34.3±6.6% and 34.3±5.9% | 30% | 30.0 ± 4.9 h | 54.5% | 245 ± 61.7 ng/g | 965 ± 312 ng/g |
